Data: patent US6627399B1, “RNA polymerase transcription promoters and nucleic acid sequencing method” (Riken, priority 1998, dated 2003)

What follows are compounds tested against wild-type T7 RNA polymerase (Escherichia phage T7, UniProt P00573) (assay: Accelerating effect of polyamines on in vitro transcription activity of T7 RNA polymerase ([α32P]UTP incorporation, gel electrophoresis)). Details: polyamine final concentration 2 mM, 37° C. for one hour; amplification of radioactivity of transcription products compared to a blank without polyamine.
Chain of wild-type T7 RNA polymerase (P00573 whole entry): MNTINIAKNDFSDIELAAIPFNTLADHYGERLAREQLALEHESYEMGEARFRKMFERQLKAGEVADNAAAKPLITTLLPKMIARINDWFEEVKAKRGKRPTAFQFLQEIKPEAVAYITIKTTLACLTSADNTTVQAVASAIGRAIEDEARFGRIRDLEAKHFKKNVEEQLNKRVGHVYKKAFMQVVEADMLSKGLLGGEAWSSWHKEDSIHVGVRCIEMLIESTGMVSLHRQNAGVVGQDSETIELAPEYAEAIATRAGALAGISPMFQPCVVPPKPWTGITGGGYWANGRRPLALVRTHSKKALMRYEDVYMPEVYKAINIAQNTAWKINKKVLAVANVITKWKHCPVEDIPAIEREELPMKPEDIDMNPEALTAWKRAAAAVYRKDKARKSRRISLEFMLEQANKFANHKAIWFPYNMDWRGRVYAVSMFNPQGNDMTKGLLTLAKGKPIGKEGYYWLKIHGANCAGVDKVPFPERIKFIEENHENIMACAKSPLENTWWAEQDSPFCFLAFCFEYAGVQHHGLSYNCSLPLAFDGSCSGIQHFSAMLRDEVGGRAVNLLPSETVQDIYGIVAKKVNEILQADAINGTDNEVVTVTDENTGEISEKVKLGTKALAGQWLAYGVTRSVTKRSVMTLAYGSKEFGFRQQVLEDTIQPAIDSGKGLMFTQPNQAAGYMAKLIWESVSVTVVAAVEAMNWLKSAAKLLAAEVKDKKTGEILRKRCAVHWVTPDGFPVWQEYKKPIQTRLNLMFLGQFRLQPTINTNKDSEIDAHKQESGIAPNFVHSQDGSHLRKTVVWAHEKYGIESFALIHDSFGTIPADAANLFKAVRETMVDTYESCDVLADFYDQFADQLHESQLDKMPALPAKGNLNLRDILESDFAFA
Type: biochemical, bacteriophage T7
Design: key: fold radioactivity relative to blank without polyamine
Experimental: An activation level was evaluated by observing an effect of a polyamine on in vitro transcription activation using bacteriophage T7 RNA polymerase in the reaction system below.
Each polyamine was added to 10 μl of reaction solution (40 mM Tris-Cl, pH 8.0, 8 mM MgCl2, 5 mM DTT, 200 µM GMP, wild-type T7 RNA polymerase 5U, 0.2 μCi [α32P]UTP, dsDNA produced by cleavage of pBluescript [Stratagene] by a restriction enzyme Pvull 500 μM as rNTP template DNA) to yield a final concentration of 2 mM, then reacted at 37° C. for one hour. After the reaction, 10 μl of formamide loading dye (98% formamide, 10 mM EDTA) was added to the products, heated at 90° C. for modification, subsequently analyzed by electrophoresis on 4% acrylamide gel. The gel was dried after the electrophoresis, observed for radioactivity contained in the transcription products using the BAS2000 image analysis system (Fujiphotofilm Inc.), and evaluated for activation level of each polyamine.
Data is given in amplification of radioactivity compared to a blank in which a reaction is carried out in parallel in the same condition excepting no polyamine was added.
With CCNCCCCNCCCCNCCCCNCC [Compound 15a, 1,14-di(ethylamino)-5,10-diazatetradecane] the “Activity Level” value was 1.21.
With CCNCCCCNCCCCCNCCCCNCC [Compound 15b, 1,15-di(ethylamino)-5,11-diazapentadecane] the “Activity Level” value was 1.18.
For CCNCCCCNCCCCCCNCCCCNCC [Compound 15c, 1,16-di (ethylamino)-5,12-diazahexadecane], the “Activity Level” value was 1.12.
In the case of CCNCCCCNCCCCCCCNCCCCNCC [Compound 15d, 1,17-di(ethylamino)-5,13-diazaheptadecane], the “Activity Level” value is reported as 1.29.
In the case of CCNCCCCNCCCCCCCCNCCCCNCC [Compound 15e, 1, 18-di(ethylamino)-5,14-diazaoctadecane], the “Activity Level” value is reported as 2.52.
CCNCCCCNCCCCCCCCCNCCCCNCC [Compound 15f, 1,19-di(ethylamino)-5,15-diazanonadecane] was tested, and the “Activity Level” value was 1.18.
CCNCCCCNCCCCCCCCCCNCCCCNCC [Compound 15g, 1,20-di(ethylamino)-5,16-diazaeicosane] was tested, and the “Activity Level” value was 2.01.
With CCNCCCNCCCCN [Compound 18, 1-ethylamino-8-amino-4-azaoctane] the “Activity Level” value was 1.12.
NCCCCNCCCCCCCCNCCCCN [Compound 19, 1,18-diamino-5,14-diazaoctadecane] was tested, and the “Activity Level” value was 1.41.
For CCN(CCCCCCCCN(CC)S(=O)(=O)c1ccc(C)cc1)S(=O)(=O)c1ccc(C)cc1 [Compound 20, N1,N8-di(p-toluenesulfonyl)-di(ethylamino)-octane], the “Activity Level” value was 1.11.
CCNCCCCCCCCNCC [Compound 21, N1,N8di(ethylamino)-octane] was tested, and the “Activity Level” value was 4.91.
With CCN(CCCCCN(CC)S(=O)(=O)c1ccc(C)cc1)S(=O)(=O)c1ccc(C)cc1 [Compound 22, N1,N5-di(p-toluenesulfonyl)-di(ethylamino)pentane] the “Activity Level” value was 1.43.
CCNCCCCCNCC [Compound 23, N1,N5-di(ethylamino)pentane] was tested, and the “Activity Level” value was 3.52.
